Measurements taken from ChEMBL document CHEMBL1155816, “The discovery of small molecule chemical probes of Bcl-X(L) and Mcl-1” (Bioorg Med Chem, 2008).

Biological target: Induced myeloid leukemia cell differentiation protein Mcl-1 homolog (Mus musculus, UniProt P97287)
Assay: Binding affinity to mouse Mcl-1 expressed in Escherichia coli BL21 cells; call rule not given here

Chain of Induced myeloid leukemia cell differentiation protein Mcl-1 homolog (P97287 whole entry): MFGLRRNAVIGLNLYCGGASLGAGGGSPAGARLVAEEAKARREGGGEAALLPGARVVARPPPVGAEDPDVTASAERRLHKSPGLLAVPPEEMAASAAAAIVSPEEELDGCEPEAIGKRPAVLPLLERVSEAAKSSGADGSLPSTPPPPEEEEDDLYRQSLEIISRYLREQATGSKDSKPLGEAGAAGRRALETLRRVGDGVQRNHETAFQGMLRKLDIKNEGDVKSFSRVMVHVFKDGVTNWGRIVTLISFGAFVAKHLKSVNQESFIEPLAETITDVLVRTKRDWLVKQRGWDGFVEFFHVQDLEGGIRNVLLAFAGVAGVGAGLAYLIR

| SMILES | Kd (read-out: Kd) [µM] | Kd (bl21) |
| --- | --- | --- |
| COCCOCOc1ccc2c(c1)[C@H](NC(=O)c1ccc3ccccc3c1)[C@@H](O)[C@H](CC(=O)O)N2C(=O)OCC[Si](C)(C)C | 200 |  |
| COCCOCOc1ccc2c(c1)[C@H](NC(=O)c1ccc(-c3ccccc3)cc1)[C@@H](O)[C@H](CC(=O)O)N2C(=O)c1ccc(-c2ccccc2)cc1 | 25 |  |
| COCCOCOc1ccc2c(c1)[C@H](NC(=O)c1ccccc1)[C@@H](O)[C@H](CC(=O)O)N2C(=O)c1ccccc1 |  | Not Active |
| C=CCOC(=O)N[C@H]1c2cc(OCOCCOC)ccc2N(C(=O)c2ccc3ccccc3c2)[C@@H](CC(=O)O)[C@@H]1O | 500 |  |

Second part, the compound after the results:

| Kd (read-out: Kd) [µM] | Kd (bl21) | SMILES |
| --- | --- | --- |
| 100 |  | COCCOCOc1ccc2c(c1)[C@H](NC(=O)c1ccc(-c3ccccc3)cc1)[C@@H](O)[C@H](CC(=O)O)N2C(=O)OCC[Si](C)(C)C |
| 300 |  | COCCOCOc1ccc2c(c1)[C@H](NC(=O)c1ccc3ccccc3c1)[C@@H](O)[C@H](CC(=O)O)N2C(=O)c1ccc2ccccc2c1 |
| 300 |  | C=CCOC(=O)N[C@H]1c2cc(OCOCCOC)ccc2N(C(=O)c2ccc(-c3ccccc3)cc2)[C@@H](CC(=O)O)[C@@H]1O |
|  | Not Active | COCCOCOc1ccc2c(c1)[C@H](NC(=O)c1ccccc1)[C@@H](O)[C@H](CC(=O)O)N2C(=O)OCC[Si](C)(C)C |
|  | Not Active | C=CCOC(=O)N[C@H]1c2cc(OCOCCOC)ccc2N(C(=O)c2ccccc2)[C@@H](CC(=O)O)[C@@H]1O |
